From patent US5463093A, “Palladium complexes and methods for using same in the treatment of tumors or Psoriasis” (priority 1993, dated 1995)
“Also recorded” adds a separate entry of the source.

Tests used:
DNA (CT) = assay: Cyclic voltammetry of charge interactions with DNA; type: biochemical
Description: 16, 1993. […] 18, 1993. […] 30, 1993.
The structures of these complexes, as shown in the Examples, were also studied by Fourier transform-infrared spectroscopy (FTIR).
The working electrode used a smile mercury drop, the reference electrode was Ag/AgCl wire in KCl solution housed behind a porous Vycor frit and the counter electrode was Ag/AgCl wire. A reversing scan was performed from either 0 or -0.3 Volt to -1.0 Volts at 20 μA or 100 μA sensitivity and a scan rate of 100 mv/sec. Before the reductase sample was run, 9.0 ml of acetate buffer background electrolyte at pH 5.0 was purged for 8 minutes by vigorous bubbling of nitrogen. The addition of each sample was followed by two minutes of nitrogen purging.
In this example, 1.0 ml of a 5 mg/ml DNA solution was added to 250 μl of a 0.12μ Poly-RC solution. […] This scan was run from 0 to -1.0 volts at 20 μA sensitivity.
The amount of energy transferred is calculated from the shift in the voltage and current coordinates in terms of the Nernst relation. This interpretation of shifts in electro-potential curves follows the interpretations of electrochemistry literature, e.g., Maloy, "Factors Affecting the Shape of Current Potential Curves," I. Chem. Ed., 60(4):285-289 (April 1983); Rieger, Electrochemistry, Prentice Hall (1987); and Riley et al., Principles of Electroanalytical Methods, John Wiley (1987).
FIG. 6A was run from 0 to -1.0 volts at 100 μA sensitivity, while Rigure 6B was run from -0.3 to -1.0 volts at 20 μA sensitivity.
Both scans were run from -0.3 to -1.0 volts at 20 μA sensitivity. […] Biochem, 51(1 and 2):221 (August 1993).

[1] = test system: Brewer's yeast (Saccharomyces cerevisae) / Baker's yeast; assay: Induction of new yeast form (cell morphology, phase microscopy); type: cell-based; details: Poly-R2 10^-7 M, 30 minutes at 28° C.
Description: Brewer's yeast (Saccharomyces cerevisae) was cultured in 2.0% malt extract and 2.0% sucrose.
The yeast was incubated for 30 minutes at 28° C. and examined under phase microscopy.

tumors = assay: Compassionate IND studies in tumor patients; type: in vivo, human; details: for liquefaction of carcinomas, adenocarcinomas, melanomas and metastases / shrinkage of carcinomas, adenocarcinomas, melanomas and metastases: patients
Excerpt: (§1) Data reporting therapeutic effects are best presented by independent institutional protocols. Compassionate Investigational New Drug studies in humans involving administration of the novel polynucleotide reductases were begun in November of 1992 and are presently ongoing.
However, the precise route of administration, dosage and frequency of administration is individualized for each patient and can vary over a wide range depending on the particular disease state being treated, the condition of the patient and the like.

[2] = test system: metastatic lesions to the liver; details: patients with metastatic lesions to the liver
Excerpt: as §1

[3] = UV spectroscopy after air oxidation of the solution; type: physicochemical; details: ninety days of air oxidation of the solution; UV spectra
Excerpt: There is no UV peak. FIGS. 2B and 2C show ultraviolet spectra of Pd-Lipoic Acid Complex (Poly-RC) with a concentration of 2×10^-6 M in FIG. 2B and 10^-6 M in FIG. 2C. FIGS. 2D and 2E show ultraviolet absorbance spectra of oxidized Poly RC after ninety days of air oxidation of the solution (experiment conducted Jun 11, 1993). In FIGS. 2D and 2E, the concentration is 0.00012 M. In FIG. 2D, the spectrum is ended at 400.0 nm and 0.542 A, and a reference peak is at 289.0 nm and 0.75 A. In FIG. 2E, the spectrum is ended at 550.0 nm and 0.036 A, and a reference peak is at 396.0 nm and 0.553 A. FIG. 2F illustrates the absorbance spectra of Pd-lipoic acid complexes at varying ratios of palladium to lipoic acid at a Pd concentration of 5×10^-5 M. The ratios are 1 Pd: 1 lipoic=n 1, 1 Pd: 2 lipoic=n 2, and 1 Pd: 3 lipoic=n 3. […] The reference peak of B12 is at 361.2 nm and 0.042 A and the reference peak of B12 Ac is at 358.6 nm and 0.044 A.
After ninety days of air oxidation of the Poly-RC solution, an ultraviolet spectra was again obtained on the Shimadzu UV spectrophotometer. In both instances, a 1.2×10^-4 μ solution was employed. […] FIG. 2E illustrates the visible range of the Poly RC, in which range an inflection is estimated as occurring at 396 nm. These spectra showing a shift from the fresh Poly RC solution are consistent with the view that Poly RC is a redox complex.

Substance	magnitude of voltammetric shifts with DNA (DNA (CT); Poly-R2 compared with Poly-RC)	reduction of DNA (DNA (CT); cyclic voltammetry)	loss of lipid droplets during giantization of yeast cells ([1]; FIG. 8B)	altered cell morphology of yeast cells ([1]; phase microscopy)	liquefaction of carcinomas, adenocarcinomas, melanomas and metastases (tumors)	shrinkage of carcinomas, adenocarcinomas, melanomas and metastases (tumors)	reduction in tumor size (tumors; terminally ill patients, objective criteria)	relief of symptoms caused by various cancers (tumors; terminally ill patients, subjective)	enlargement of the liver [2]	serum albumen levels [2]	charge interaction of Poly-RC with DNA (voltammetric wave) (DNA (CT); 250 μl of 0.12 M Poly-RC + 1.0 ml DNA 5 mg/ml, 0 to -1.0 volts, 20 μA)	redox state after air oxidation [3]
thiamine salt of a palladium-lipoic acid complex [Poly-R2]	greater magnitude	can reduce both DNA and RNA	lipid droplets are lost from the cell; also recorded: lipid drops are lost from the cell	Large fiat cells were one kind of new variety; also recorded: altered cell morphology of yeast cells	developing non-hemorrhagic central liquefaction	shrinking	reduction in tumor size by objective criteria	subjective relief of symptoms	no longer palpable	return to normal	–	–
palladium-lipoic acid complex [Poly-RC]	–	–	–	–	developing non-hemorrhagic central liquefaction	shrinking	–	–	–	–	double peaked catalytic wave of Poly-RC was altered on the addition of DNA; also recorded: current had dropped and voltage had moved in the oxidative direction; also recorded: DNA oxidizes Poly-RC	in the oxidative state
